Source: US20250223307A1, “MDM2/MDMX DOUBLE-TARGET INHIBITOR COMPOUND, PRODRUG, PHARMACEUTICAL COMPOSITION, AND PREPARATION METHOD THEREFOR AND USE THEREOF” (GLOBAL HEALTH DRUG DISCOVERY INSTITUTE, priority 2022, published 2025)

Columns and labels:
[1] = system: Blood cancer cells RS4; 11; assay: CellTiter Glo test: growth inhibition of cells; assay type: cell-based; details: Homo sapiens, 11 cells, 72 h, cell viability
Method: Test of Candidate Compounds on Growth Inhibition of Cells Determined by CellTiter Glo
Blood cancer cells RS4; 11 were inoculated into the 96-well cell culture plate through Multidrop 3000 cells per well, with a volume of 100 μL. The final compound concentration ranged from 50 μM to 0.01 μM at 9 concentration gradients and the DMSO final concentration was 0.1%. The cells and compounds were co-incubated in a cell incubator at 37° C. for 72 h, a CellTiter-Glo Luminescent Cell Viability Assay reagent was added 100 μL/well, the cells and compound were uniformly mixed and incubated at room temperature for 10 min, and Envision reading was performed. A sample treated with 50 μM of a positive compound was taken as a positive control and a sample treated with 100 nL of DMSO was taken as a negative control.

[2] = target: MDM2 (Homo sapiens, UniProt Q00987); assay: HTRF test: inhibition of MDM2-p53 protein binding
[3] = target: T1, MDMX (Homo sapiens, UniProt O15151); assay: HTRF test: inhibition of MDMX-p53 protein binding
T1 sequence (O15151 2-134): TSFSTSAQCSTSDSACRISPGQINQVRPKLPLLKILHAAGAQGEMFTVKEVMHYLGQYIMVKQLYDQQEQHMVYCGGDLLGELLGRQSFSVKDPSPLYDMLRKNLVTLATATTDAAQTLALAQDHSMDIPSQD

Chain of MDM2 (Q00987 2-138): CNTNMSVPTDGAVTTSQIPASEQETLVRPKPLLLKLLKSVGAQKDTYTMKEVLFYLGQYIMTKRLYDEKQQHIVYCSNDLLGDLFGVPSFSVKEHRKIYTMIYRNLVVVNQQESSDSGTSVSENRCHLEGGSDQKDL

`N#Cc1ccc(C(C(=O)NCCO)N2C(=O)N/C(=C\c3cn(P(=O)(O)O)c4c(F)c(Cl)ccc34)C2=O)cc1F` (stereo not drawn) [Compound 56, (Z)-(6-chloro-3-((1-(1-(4-cyano-3-fluorophenyl)-2-((2-hydroxyethyl)amino)-2-oxyethyl)-2,5-dioxoimidazolidin-4-ylene)methyl)-7-fluoro-1H-indol-1-yl)phosphonic acid] was tested, and the IC50 [1] was 1000 to 10000 nM, the IC50 [2] was 10 to 100 nM and the IC50 [3] was 10 to 100 nM.

With `Cc1c(Cl)ccc2c(/C=C3\NC(=O)N(C(C(=O)NC45CC(O)(C4)C5)c4ccc(F)c(F)c4)C3=O)c[nH]c12` (stereo not drawn) [Compound 57, (Z)-2-(4-((6-chloro-7-methyl-1H-indol-3-yl)methylene)-2,5-dioxoimidazolidin-1-yl)-2-(3,4-difluorophenyl)-N-(3-hydroxylbicyclo[1.1.1]pentan-1-yl)acetamide] the IC50 [1] was ≤ 1000 nM, the IC50 [2] was < 10 nM and the IC50 [3] was < 10 nM.

In the case of `N#Cc1ccc(C(C(=O)NCCO)N2C(=O)N/C(=C\c3c[nH]c4c(F)c(Cl)ccc34)C2=O)cc1` (stereo not drawn) [Compound 58, (Z)-2-(4-((6-chloro-7-fluoro-1H-indol-3-yl)methylene)-2,5-dioxoimidazolidin-1-yl)-2-(4-cyanophenyl)-N-(2-hydroxyethyl)acetamide], the IC50 [1] is reported as ≤ 1000 nM, the IC50 [2] is reported as < 10 nM and the IC50 [3] is reported as < 10 nM.

For `O=C(NCCO)C(c1ccc(Cl)cc1)N1C(=O)N/C(=C\c2c[nH]c3c(F)c(Cl)ccc23)C1=O` (stereo not drawn) [Compound 59, (Z)-2-(4-((6-chloro-7-fluoro-1H-indol-3-yl)methylene)-2,5-dioxoimidazolidin-1-yl)-2-(4-chlorophenyl)-N-(2-hydroxyethyl)acetamide], the IC50 [1] was ≤ 1000 nM, the IC50 [2] was < 10 nM and the IC50 [3] was 10 to 100 nM.

`Cc1c(Cl)ccc2c(/C=C3\NC(=O)N(C(C(=O)NCCO)c4ccc(C#N)cc4)C3=O)c[nH]c12` (stereo not drawn) [Compound 60, (Z)-2-(4-((6-chloro-7-methyl-1H-indol-3-yl)methylene)-2,5-dioxoimidazolidin-1-yl)-2-(4-cyanophenyl)-N-(2-hydroxyethyl)acetamide] was tested, and the IC50 [1] was ≤ 1000 nM, the IC50 [2] was < 10 nM and the IC50 [3] was < 10 nM.

In the case of `N#Cc1ccc(C(C(=O)NCCO)N2C(=O)N/C(=C\c3c[nH]c4cc(Cl)ccc34)C2=O)cc1` (stereo not drawn) [Compound 61, (Z)-2-(4-((6-chloro-1H-indol-3-yl)methylene)-2,5-dioxoimidazolidin-1-yl)-2-(4-cyanophenyl)-N-(2-hydroxyethyl)acetamide], the IC50 [1] is reported as 1000 to 10000 nM, the IC50 [2] is reported as < 10 nM and the IC50 [3] is reported as 10 to 100 nM.

`O=C(NCCO)C(c1ccc(Cl)cc1)N1C(=O)N/C(=C\c2c[nH]c3cc(Cl)ccc23)C1=O` (stereo not drawn) [Compound 62, (Z)-2-(4-((6-chloro-1H-indol-3-yl)methylene)-2,5-dioxoimidazolidin-1-yl)-2-(4-chlorophenyl)-N-(2-hydroxyethyl)acetamide] was tested, and the IC50 [1] was ≤ 1000 nM, the IC50 [2] was < 10 nM and the IC50 [3] was 10 to 100 nM.

In the case of `Cc1c(Cl)ccc2c(/C=C3\NC(=O)N(C(C(=O)NCC45CCC(O)(CC4)CC5)c4ccc(F)c(F)c4)C3=O)c[nH]c12` (stereo not drawn) [Compound 64, (Z)-2-(4-((6-chloro-7-methyl-1H-indol-3-yl)methylene)-2,5-dioxoimidazolidin-1-yl)-2-(3,4-difluorophenyl)-N-((4-hydroxylbicyclo[2.2.2]octan-1-yl)methyl)acetamide], the IC50 [1] is reported as ≤ 1000 nM, the IC50 [2] is reported as < 10 nM and the IC50 [3] is reported as < 10 nM.

With `Cc1c(Cl)ccc2c(/C=C3\NC(=O)N(C(C(=O)NC45CCC(O)(CC4)CC5)c4ccc(F)c(F)c4)C3=O)c[nH]c12` (stereo not drawn) [Compound 66, (Z)-2-(4-((6-chloro-7-methyl-1H-indol-3-yl)methylene)-2,5-dioxoimidazolidin-1-yl)-2-(3,4-difluorophenyl)-N-(4-hydroxylbicyclo[2.2.2]octan-1-yl)acetamide] the IC50 [1] was ≤ 1000 nM, the IC50 [2] was < 10 nM and the IC50 [3] was < 10 nM.

`Cc1c(Cl)ccc2c(/C=C3\NC(=O)N(C(C(=O)NCCO)c4ccc(C#N)c(F)c4)C3=O)c[nH]c12` (stereo not drawn) [Compound 67, (Z)-2-(4-((6-chloro-7-methyl-1H-indol-3-yl)methylene)-2,5-dioxoimidazolidin-1-yl)-2-(4-cyano-3-fluorophenyl)-N-(2-hydroxyethyl)acetamide] was tested, and the IC50 [1] was ≤ 1000 nM, the IC50 [2] was < 10 nM and the IC50 [3] was < 10 nM.

For `Cc1c(Cl)ccc2c(/C=C3\NC(=O)N(C(C(=O)NCC45CC(O)(C4)C5)c4ccc(F)c(F)c4)C3=O)c[nH]c12` (stereo not drawn) [Compound 68, (Z)-2-(4-((6-chloro-7-methyl-1H-indol-3-yl)methylene)-2,5-dioxoimidazolidin-1-yl)-2-(3,4-difluorophenyl)-N-((3-hydroxylbicyclo[1.1.1]pentan-1-yl)methyl)acetamide], the IC50 [1] was ≤ 1000 nM, the IC50 [2] was < 10 nM and the IC50 [3] was < 10 nM.

With `O=C1N/C(=C\c2c[nH]c3c(F)c(Cl)ccc23)C(=O)N1C(CO)c1ccc(Cl)cc1` (stereo not drawn) [Compound 69, (Z)-5-((6-chloro-7-fluoro-1H-indol-3-yl)methylene)-3-(1-(4-chlorophenyl)-2-hydroxyethyl)imidazolidine-2,4-dione] the IC50 [1] was ≤ 1000 nM, the IC50 [2] was 10 to 100 nM and the IC50 [3] was 10 to 100 nM.

`Cc1c(Cl)ccc2c(/C=C3\NC(=O)N(C(CO)c4ccc(Cl)cc4)C3=O)c[nH]c12` (stereo not drawn) [Compound 70, (Z)-5-((6-chloro-7-methyl-1H-indol-3-yl)methylene)-3-(1-(4-chlorophenyl)-2-hydroxyethyl)imidazolidine-2,4-dione] was tested, and the IC50 [1] was ≤ 1000 nM, the IC50 [2] was 10 to 100 nM and the IC50 [3] was 10 to 100 nM.

In the case of `O=C(NCCO)C(c1ccc(F)c(F)c1)N1C(=O)N/C(=C\c2c[nH]c3c(F)c(Cl)ccc23)C1=O` (stereo not drawn) [Compound 72, (Z)-2-(4-((6-chloro-7-fluoro-1H-indol-3-yl)methylene)-2,5-dioxoimidazolidin-1-yl)-2-(3,4-difluorophenyl)-N-(2-hydroxyethyl)acetamide], the IC50 [1] is reported as ≤ 1000 nM, the IC50 [2] is reported as < 10 nM and the IC50 [3] is reported as < 10 nM.

With `O=C1N/C(=C\c2c[nH]c3c(F)c(Cl)ccc23)C(=O)N1C(CO)c1ccc(Cl)c(F)c1` (stereo not drawn) [Compound 77, (Z)-3-(1-(4-chloro-3-fluorophenyl)-2-hydroxyethyl)-5-((6-chloro-7-fluoro-1H-indol-3-yl)methylene)imidazolidine-2,4-dione] the IC50 [1] was ≤ 1000 nM, the IC50 [2] was 10 to 100 nM and the IC50 [3] was 10 to 100 nM.

With `Cc1c(Cl)ccc2c(/C=C3\NC(=O)N(C(CO)c4ccc(Cl)c(F)c4)C3=O)c[nH]c12` (stereo not drawn) [Compound 78, (Z)-3-(1-(4-chloro-3-fluorophenyl)-2-hydroxyethyl)-5-((6-chloro-7-methyl-1H-indol-3-yl)methylene)imidazolidine-2,4-dione] the IC50 [1] was ≤ 1000 nM, the IC50 [2] was 10 to 100 nM and the IC50 [3] was 10 to 100 nM.

With `O=C1N/C(=C\c2c[nH]c3cc(Cl)ccc23)C(=O)N1C(CO)c1ccc(Cl)c(F)c1` (stereo not drawn) [Compound 79, (Z)-5-((6-chloro-1H-indol-3-yl)methylene)-3-(1-(4-chloro-3-fluorophenyl)-2-hydroxyethyl)imidazolidine-2,4-dione] the IC50 [1] was ≤ 1000 nM, the IC50 [2] was 10 to 100 nM and the IC50 [3] was 10 to 100 nM.

In the case of `O=C1N/C(=C\c2c[nH]c3c(F)c(Cl)ccc23)C(=O)N1C(CO)c1ccc(F)cc1` (stereo not drawn) [Compound 84, (Z)-5-((6-chloro-7-fluoro-1H-indol-3-yl)methylene)-3-(1-(4-fluorophenyl)-2-hydroxyethyl)imidazolidine-2,4-dione], the IC50 [1] is reported as ≤ 1000 nM, the IC50 [2] is reported as < 10 nM and the IC50 [3] is reported as < 10 nM.

For `N#Cc1ccc(C(CO)N2C(=O)N/C(=C\c3c[nH]c4c(F)c(Cl)ccc34)C2=O)cc1` (stereo not drawn) [Compound 85, (Z)-4-(1-(4-((6-chloro-7-fluoro-1H-indol-3-yl)methylene)-2,5-dioxoimidazolidin-1-yl)-2-hydroxyethyl)benzonitrile], the IC50 [1] was ≤ 1000 nM, the IC50 [2] was < 10 nM and the IC50 [3] was < 10 nM.

`O=C1N/C(=C\c2c[nH]c3c(F)c(Cl)ccc23)C(=O)N1C(CO)c1ccc(F)c(F)c1` (stereo not drawn) [Compound 86, (Z)-5-((6-chloro-7-fluoro-1H-indol-3-yl)methylene)-3-(1-(3,4-difluorophenyl)-2-hydroxyethyl)imidazolidine-2,4-dione] was tested, and the IC50 [1] was ≤ 1000 nM, the IC50 [2] was 10 to 100 nM and the IC50 [3] was 10 to 100 nM.

For `Cc1c(Cl)ccc2c(/C=C3\NC(=O)N(C(CO)c4ccc(C#N)cc4)C3=O)c[nH]c12` (stereo not drawn) [Compound 88, (Z)-4-(1-(4-((6-chloro-7-methyl-1H-indol-3-yl)methylene)-2,5-dioxoimidazolidin-1-yl)-2-hydroxyethyl)benzonitrile], the IC50 [1] was ≤ 1000 nM, the IC50 [2] was < 10 nM and the IC50 [3] was < 10 nM.

For `Cc1c(Cl)ccc2c(/C=C3\NC(=O)N([C@@H](CO)c4ccc(C#N)cc4)C3=O)c[nH]c12` [Compound 96, (R,Z)-4-(1-(4-((6-chloro-7-methyl-1H-indol-3-yl)methylene)-2,5-dioxoimidazolidin-1-yl)-2-hydroxyethyl)benzonitrile], the IC50 [1] was ≤ 1000 nM, the IC50 [2] was < 10 nM and the IC50 [3] was < 10 nM.

`Cc1c(Cl)ccc2c(/C=C3\NC(=O)N([C@H](CO)c4ccc(C#N)cc4)C3=O)c[nH]c12` [Compound 97, (S,Z)-4-(1-(4-((6-chloro-7-methyl-1H-indol-3-yl)methylene)-2,5-dioxoimidazolidin-1-yl)-2-hydroxyethyl)benzonitrile] was tested, and the IC50 [1] was ≤ 1000 nM, the IC50 [2] was 10 to 100 nM and the IC50 [3] was 10 to 100 nM.

`O=C1N/C(=C\c2c[nH]c3c(F)c(Cl)ccc23)C(=O)N1Cc1ccc(Cl)cc1F` [Compound 98, (Z)-3-(4-chloro-2-fluorobenzyl)-5-((6-chloro-7-fluoro-1H-indol-3-yl)methylene)imidazolidine-2,4-dione] was tested, and the IC50 [1] was ≤ 1000 nM, the IC50 [2] was 10 to 100 nM and the IC50 [3] was > 100 nM.
